From ChEMBL document CHEMBL1139102, “Comparison of N,N'-diarylsquaramides and N,N'-diarylureas as antagonists of the CXCR2 chemokine receptor” (Bioorg Med Chem Lett, 2007)
Values after ≈ are worked out from the molar mass of the structure shown. Values joined by “and” are separate entries in the source; they are usually repeats but may differ in a detail not shown here. Identical values can stand only once.

Tests used:
[1] = target: T1, C-X-C chemokine receptor type 2 (Homo sapiens, UniProt P25025); experiment: Displacement of [125I]IL8 from human recombinant CXCR2 expressed in CHO cells; format: cell-based
T1 sequence (P25025 whole entry): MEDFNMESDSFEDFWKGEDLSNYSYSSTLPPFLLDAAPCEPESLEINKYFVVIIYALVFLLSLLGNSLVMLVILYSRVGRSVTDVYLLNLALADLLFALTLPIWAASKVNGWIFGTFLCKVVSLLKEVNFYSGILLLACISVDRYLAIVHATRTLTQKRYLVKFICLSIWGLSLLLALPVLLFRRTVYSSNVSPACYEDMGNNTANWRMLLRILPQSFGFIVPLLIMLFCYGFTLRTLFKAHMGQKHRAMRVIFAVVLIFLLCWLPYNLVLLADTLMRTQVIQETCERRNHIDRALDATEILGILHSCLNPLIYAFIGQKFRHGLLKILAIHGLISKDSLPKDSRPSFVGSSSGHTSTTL

[2] = Aqueous solubility in phosphate buffer at pH 7.4; format: physicochemical
[3] = Dissociation constant, pKa at pH 7.4; format: physicochemical
[4] = Clearance in Sprague-Dawley rat at 4 umol/kg, iv and 8 umol/kg, po; format: ADME, organism-based; details: in vivo
[5] = Volume of distribution at steady state in Sprague-Dawley rat at 4 umol/kg, iv and 8 umol/kg, po; format: ADME, organism-based; details: in vivo, read-out: Vdss
in vivo = details: Sprague-Dawley, rat, po, 8 umol/kg

| IC50 [1] | solubility [2] [µM] | SMILES | other results |
| --- | --- | --- | --- |
| 0.276 µM | – | N#Cc1cccc(NC(=O)Nc2ccccc2)c1O | – |
| 0.014 µM | 88 (≈ 31.5 µg/mL) | NC(=O)c1c(Cl)ccc(Nc2c(Nc3ccccc3)c(=O)c2=O)c1O | – |
| 25 µM | – | Cc1ccc(NC(=O)Nc2ccccc2)c(O)c1 | – |
| 0.032 µM | 3 (≈ 1.18 µg/mL) | O=c1c(Nc2ccc(Cl)cc2O)c(Nc2ccccc2Br)c1=O | – |
| > 30 µM | – | O=C(Nc1ccccc1)Nc1c(O)cccc1[N+](=O)[O-] | – |
| 0.235 µM | – | O=c1c(O)c(Nc2ccccc2)/c1=N/c1ccccc1O | pKa [3]: 8.6 |
| 0.051 µM | – | O=c1c(Nc2ccccc2O)c(Nc2ccccc2Br)c1=O | – |
| 0.205 µM | – | Cc1ccc(Nc2c(Nc3ccccc3)c(=O)c2=O)c(O)c1 | – |
| > 9 µM | – | O=C(Nc1ccccc1O)Nc1ccccc1Br | – |
| 0.022 µM | – | O=c1c(O)c(Nc2ccc([N+](=O)[O-])cc2O)/c1=N/c1ccccc1 | – |
| 0.028 µM | 143 (≈ 70.2 µg/mL) | O=C(c1c(Cl)ccc(Nc2c(Nc3ccccc3Br)c(=O)c2=O)c1O)N1CCCC1 | – |
| 0.013 µM | 44 | CN1CCN(S(=O)(=O)c2c(F)ccc(Nc3c(Nc4ccccc4Br)c(=O)c3=O)c2O)CC1.O=C(O)C(F)(F)F | – |
| 0.358 µM | – | O=c1c(Nc2ccccc2)c(Nc2c(O)cccc2[N+](=O)[O-])c1=O | – |
| 0.032 µM | – | N#Cc1cccc(Nc2c(Nc3ccccc3)c(=O)c2=O)c1O | – |
| 0.027 µM | 121 | CN1CCN(C(=O)c2cccc(Nc3c(Nc4ccccc4)c(=O)c3=O)c2O)CC1.O=C(O)C(F)(F)F | – |
| > 30 µM | – | O=C(Nc1ccccc1)Nc1cc(Cl)ccc1O | – |
| 0.044 µM | 178 | CN1CCCN(C(=O)c2cccc(Nc3c(Nc4ccccc4)c(=O)c3=O)c2O)CC1.O=C(O)C(F)(F)F | clearance [4]: 15 mL/min/kg; Vd [5]: 0.33 L/kg |

| IC50 [1] | solubility [2] [µM] | SMILES | other results |
| --- | --- | --- | --- |
| 0.01 µM | 138 | CN1CCCN(S(=O)(=O)c2c(Cl)ccc(Nc3c(Nc4ccccc4Br)c(=O)c3=O)c2O)CC1.Cl | clearance [4]: 4 mL/min/kg; Vd [5]: 0.24 L/kg |
| 0.015 µM and 0.036 µM | 14 (≈ 5.38 µg/mL) | N#Cc1ccc(Nc2c(Nc3ccccc3Br)c(=O)c2=O)c(O)c1 | clearance [4]: 15 mL/min/kg; Vd [5]: 0.15 L/kg |
| 0.015 µM | – | N#Cc1ccc(Nc2c(O)c(=O)/c2=N\c2ccccc2)c(O)c1 | pKa [3]: 7.09 |
| – | 7 | Cl.O=c1c(Nc2ccccc2)c(Nc2ccc(Cl)c(S(=O)(=O)N3CCC(N4CCCCC4)CC3)c2O)c1=O | bioavailability (in vivo): 5%; clearance [4]: 1.2 mL/min/kg; Vd [5]: 0.24 L/kg |
| 0.008 µM | 78 | CCCc1ccccc1Nc1c(Nc2ccc(Cl)c(S(=O)(=O)N3CCN(CC)CC3)c2O)c(=O)c1=O.O=C(O)C(F)(F)F | clearance [4]: 7 mL/min/kg; Vd [5]: 0.89 L/kg |
| 0.008 µM | 73 (≈ 33 µg/mL) | COCCNS(=O)(=O)c1c(Cl)ccc(Nc2c(Nc3ccccc3)c(=O)c2=O)c1O | bioavailability (in vivo): 23%; clearance [4]: 0.6 mL/min/kg; Vd [5]: 0.14 L/kg |
| > 30 µM | – | Cc1cccc(O)c1NC(=O)Nc1ccccc1 | – |
| 0.02 µM | 160 | CN1CCCN(S(=O)(=O)c2c(Cl)ccc(Nc3c(Nc4ccccc4Cl)c(=O)c3=O)c2O)CC1.Cl | clearance [4]: 4 mL/min/kg; Vd [5]: 0.31 L/kg |
| > 30 µM | – | O=C(Nc1ccccc1)Nc1ccccc1O | – |
| > 30 µM | – | Cc1ccc(O)c(NC(=O)Nc2ccccc2)c1 | – |
| 1.72 µM | – | Cc1cccc(O)c1Nc1c(Nc2ccccc2)c(=O)c1=O | – |
| 0.015 µM | 10 (≈ 4.15 µg/mL) | Cc1ccccc1Nc1c(Nc2ccc(C)c(S(=O)(=O)N(C)C)c2O)c(=O)c1=O | clearance [4]: 4 mL/min/kg; Vd [5]: 0.25 L/kg |
| 0.308 µM | – | Cc1ccc(O)c(Nc2c(Nc3ccccc3)c(=O)c2=O)c1 | – |
| 0.052 µM | – | O=c1c(Nc2ccccc2)c(Nc2cc(Cl)c([N+](=O)[O-])cc2O)c1=O | – |
| – | 86 (≈ 38.3 µg/mL) | O=C(c1cccc(Nc2c(Nc3ccccc3C(F)(F)F)c(=O)c2=O)c1O)N1CCCC1 | clearance [4]: 45 mL/min/kg; Vd [5]: 0.66 L/kg |
| 0.054 µM | – | O=c1c(Nc2ccccc2)c(Nc2cc(Cl)ccc2O)c1=O | – |
| 0.037 µM | – | O=c1c(Nc2ccc([N+](=O)[O-])cc2O)c(Nc2ccccc2Br)c1=O | – |

| SMILES | IC50 [1] | solubility [2] [µM] | other results |
| --- | --- | --- | --- |
| O=C(Nc1ccccc1)Nc1cc(Cl)c([N+](=O)[O-])cc1O | 0.95 µM | – | – |
